In patent US20260217701A1, “SELECTIVE BET INHIBITORS AND USES THEREOF” (Tay Therapeutics Limited, priority 2022, published 2026):
“And” between values parts separate entries of the source, which are not always exact repeats. Equal entries are not always repeated.

Assay: CIA study: animal body weight
Details: for Average animal body weight percent change: CIA; for Animal body weight percent change (%): Group 3 (CIA + Dexamethasone), individual animals

C[C@@H]1C[C@H]2[C@@H]3CCC4=CC(=O)C=C[C@]4(C)[C@@]3(F)[C@@H](O)C[C@]2(C)[C@@]1(O)C(=O)CO [Dexamethasone, dexamethasone]
Average animal body weight percent change (Day 0): 0.00% | Animal body weight percent change (%) (Day 0): 0.00% | Average animal body weight percent change (Day 1): −2.80% | Animal body weight percent change (%) (Day 1): 0.66% and −7.41% and −1.72% and −2.37% and 1.20% and −6.21% | Average animal body weight percent change (Day 2): −3.22% | Animal body weight percent change (%) (Day 2): −0.66% and −6.79% and 1.15% and −1.78% and −3.01% and −8.07% | Average animal body weight percent change (Day 3): −4.37% | Animal body weight percent change (%) (Day 3): −1.99% and 11.11% and 0.57% and −2.96% and −2.41% and −9.94% | Average animal body weight percent change (Day 4): −4.95% | Animal body weight percent change (%) (Day 4): −2.65% and −9.26% and −2.30% and −5.33% and −6.02% | Average animal body weight percent change (Day 5): −4.95% | Animal body weight percent change (%) (Day 5): −2.65% and −8.02% and −5.17% and −2.96% and −4.82% | Average animal body weight percent change (Day 6): −4.41% | Animal body weight percent change (%) (Day 6): −2.65% and 6.17% and −1.72% and −4.73% and −6.63% | Average animal body weight percent change (Day 7): −3.35% | Animal body weight percent change (%) (Day 7): −0.66% and −5.56% and 2.30% and −4.14% and −3.61% | Average animal body weight percent change (Day 8): −3.90% | Average animal body weight percent change (Day 9): −1.84% | Average animal body weight percent change (Day 10): −2.30% | Average animal body weight percent change (Day 11): −1.24% | Average animal body weight percent change (Day 12): −1.18% | Average animal body weight percent change (Day 13): −0.91% | Average animal body weight percent change (Day 14): −1.24% | Average animal body weight percent change (Day 15): 0.43% | Animal body weight percent change (%) (Day 15): 9.93% and −3.09% and 2.30% and 0.59% and 1.20% and −6.83% and 2.33% and −0.63% | Average animal body weight percent change (Day 16): −0.57% | Animal body weight percent change (%) (Day 16): 3.97% and −5.56% and 7.47% and −0.59% and −4.22% and −8.70% and 1.16% and 1.88% | Average animal body weight percent change (Day 17): 0.62% | Animal body weight percent change (%) (Day 17): 5.96% and −4.32% and 8.05% and −2.37% and 0.60% and −6.83% and −1.16% and 5.00% | Average animal body weight percent change (Day 18): 1.02% | Animal body weight percent change (%) (Day 18): 3.97% and −6.17% and 8.62% and −2.37% and 0.00% and −5.59% and 4.07% and 5.63% | Average animal body weight percent change (Day 19): 1.53% | Animal body weight percent change (%) (Day 19): 7.28% and −9.26% and 10.34% and 0.59% and 1.20% and −5.59% and 5.81% and 1.88% | Average animal body weight percent change (Day 20): 1.66% | Animal body weight percent change (%) (Day 20): 7.95% and −3.70% and 5.75% and 2.37% and 0.60% and 4.35% and 4.65% and 0.00% | Average animal body weight percent change (Day 21): 1.30% | Animal body weight percent change (%) (Day 21): 8.61% and −3.70% and 7.47% and 0.00% and −3.01% and −5.59% and 2.91% and 3.75%
